The conditions of data set [1]: in water; cited from earlier work.
Data set [2] deals with T1, PTH receptor (PTHR1) (Homo sapiens, UniProt Q03431).
T1 construct: Cerep SA
T1 sequence (Q03431 27-593): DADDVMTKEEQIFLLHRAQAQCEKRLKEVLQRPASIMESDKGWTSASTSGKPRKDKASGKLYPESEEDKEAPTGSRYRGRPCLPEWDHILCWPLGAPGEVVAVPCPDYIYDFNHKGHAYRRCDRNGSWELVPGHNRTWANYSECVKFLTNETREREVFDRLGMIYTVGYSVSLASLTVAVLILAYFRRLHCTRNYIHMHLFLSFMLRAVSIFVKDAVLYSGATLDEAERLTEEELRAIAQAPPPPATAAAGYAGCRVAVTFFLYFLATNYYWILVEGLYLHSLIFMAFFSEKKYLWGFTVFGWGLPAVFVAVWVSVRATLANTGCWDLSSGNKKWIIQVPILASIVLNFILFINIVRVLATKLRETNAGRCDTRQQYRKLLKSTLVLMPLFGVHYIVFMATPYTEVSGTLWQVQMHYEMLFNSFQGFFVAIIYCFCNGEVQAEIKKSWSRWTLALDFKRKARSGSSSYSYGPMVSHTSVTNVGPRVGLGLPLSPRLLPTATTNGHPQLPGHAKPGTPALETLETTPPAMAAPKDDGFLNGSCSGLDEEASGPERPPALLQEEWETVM
Kind of data set: PTH1 cellular assay, cAMP, agonist mode (SaOS2 cells, Cerep). Type of data set: cell-based. Particulars: for Emax: SAOS-2, read-out: Maximal response (% PTHrP). As for the experimental part: Compounds were weighed precisely in an amount of approximately 1 mg and assayed in standard cellular assays (cerep SA). The readout is the amount of cAMP generated in the cells treated with the test compounds, in either agonist or antagonist mode.
Compounds were dissolved in water and diluted in assay buffer containing 1% bovine serum albumin.

Data set [3] deals with T2, mu opioid receptor (Homo sapiens, UniProt P35372).
T2 construct: Cerep
Kind of data set: mu opioid receptor cellular assay (MOP), agonist mode, cAMP readout (Cerep). Type of data set: cell-based. As for the experimental part: (§1) Compounds were weighed precisely in an amount of approximately 2 mg and assayed in standard cellular assays by the contract research organization Cerep, Inc. (Pullman, Wash.) as executed at their subsidiary, Cerep SA (Le Bois l'Eveque, France). The readout is the amount of cAMP generated in the cells treated with the test compounds, in either agonist or antagonist mode. The assays used were the mu opioid receptor cellular assay (MOP in agonist and antagonist mode), the delta2 opioid receptor cellular assay (DOP in agonist and antagonist mode) and the kappa opioid receptor cellular assay (KOP in agonist and antagonist mode). The assays used are described in Wang, J. B., et al. (1994) FEBS Lett 338: 217-222, Law, P. Y. and Loh, H. H. (1993) Mol Pharmacol 43: 684-693, and Avidor-Reiss, T., et al. (1995) FEBS Lett 361: 70-74. The stimulant for the cells in the DOR antagonist assay was 3×10E-8M DPDPE, a well-accepted DOR literature standard.

In data set [4] the target is T3, delta2 opioid receptor (Mus musculus, UniProt P32300).
T3 construct: Cerep
Description: delta2 opioid receptor cellular assay (DOP), antagonist mode vs DPDPE, cAMP readout. The format is cell-based. As for the experimental part:
as §1

Non-standard residues stand in square brackets, D forms with d. Residues, ends and D or L forms follow the SMILES beside them. *: point of attachment. βGlcA(1-O-hexadecyl) = CCCCCCCCCCCCCCCCO[C@@H]1O[C@H](C(=O)*)[C@@H](O)[C@H](O)[C@H]1O; βDGlcA(1-OC18H37) = CCCCCCCCCCCCCCCCCCO[C@@H]1O[C@H](C(=O)*)[C@@H](O)[C@H](O)[C@H]1O; GlcA(β-D,1-O-dodecyl) = CCCCCCCCCCCCO[C@@H]1O[C@H](C(=O)*)[C@@H](O)[C@H](O)[C@H]1O; GlcA(β1-O-octyl) = CCCCCCCCO[C@@H]1O[C@H](C(=O)*)[C@@H](O)[C@H](O)[C@H]1O; βGlcA(1-OMe) = CO[C@@H]1O[C@H](C(=O)*)[C@@H](O)[C@H](O)[C@H]1O; Dmt = Cc1cc(O)cc(C)c1C[C@H](N)C(=O)O; hArg = N=C(N)NCCCC[C@H](N)C(=O)O; Tic = O=C(O)[C@@H]1Cc2ccccc2CN1; Nle = CCCC[C@H](N)C(=O)O; Ac5c = NC1(C(=O)O)CCCC1; Aib = CC(C)(N)C(=O)O; NHBn = c1ccc(CN*)cc1 A value given as a limit tells only on which side of the number the result lay.

T3 sequence (P32300 whole entry): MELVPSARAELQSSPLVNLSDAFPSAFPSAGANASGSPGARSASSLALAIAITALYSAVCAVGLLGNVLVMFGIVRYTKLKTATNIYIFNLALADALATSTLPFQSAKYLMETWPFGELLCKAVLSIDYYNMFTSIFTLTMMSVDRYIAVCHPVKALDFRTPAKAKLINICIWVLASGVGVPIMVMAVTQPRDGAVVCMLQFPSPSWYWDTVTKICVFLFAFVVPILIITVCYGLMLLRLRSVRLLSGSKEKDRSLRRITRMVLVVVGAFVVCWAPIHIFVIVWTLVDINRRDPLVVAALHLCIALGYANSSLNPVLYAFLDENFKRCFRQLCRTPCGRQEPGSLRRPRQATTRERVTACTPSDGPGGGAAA
T2 sequence (P35372 whole entry): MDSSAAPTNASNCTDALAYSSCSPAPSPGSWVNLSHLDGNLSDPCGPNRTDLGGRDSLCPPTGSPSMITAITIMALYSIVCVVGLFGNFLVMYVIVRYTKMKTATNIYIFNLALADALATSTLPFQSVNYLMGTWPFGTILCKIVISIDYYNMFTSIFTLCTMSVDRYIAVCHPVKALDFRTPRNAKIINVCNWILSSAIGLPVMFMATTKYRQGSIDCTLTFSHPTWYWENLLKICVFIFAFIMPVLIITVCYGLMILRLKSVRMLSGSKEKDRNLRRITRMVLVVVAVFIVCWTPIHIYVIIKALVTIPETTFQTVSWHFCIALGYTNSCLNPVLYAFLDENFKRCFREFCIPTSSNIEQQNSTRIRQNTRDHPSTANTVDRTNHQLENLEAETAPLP

As to `CCCCCCCCCCCCCCO[C@@H]1O[C@H](CO)[C@@H](O[C@@H]2O[C@@H](CO)[C@H](O)[C@@H](O)[C@@H]2O)[C@H](O)[C@H]1O` (stereo in doubt) [Tetradecyl maltoside], in data set [1], the CMC is reported as 0.01 mM.
Turning to `CCCCCCCCCCCCCO[C@@H]1O[C@H](CO)[C@@H](OC2OC(CO)C(O)C(O)C2O)[C@H](O)[C@H]1O` (stereo in doubt) [Tridecyl maltoside], the CMC in data set [1] is reported as 0.03 mM.
Take `CCCCCCCCCCO[C@@H]1O[C@H](CO)[C@@H](O[C@H]2O[C@H](CO)[C@@H](O)[C@H](O)[C@H]2O)[C@H](O)[C@H]1O` [Decyl maltoside]: the CMC in data set [1] was 1.8 mM.
With `CCCCCCCCCCCCO[C@@H]1O[C@H](CO)[C@@H](O[C@H]2O[C@H](CO)[C@@H](O)[C@H](O)[C@H]2O)[C@H](O)[C@H]1O` [Dodecyl-β-D-maltoside], the CMC in data set [1] is reported as 0.17 mM.
In general, EC50 refers to the concentration that produces a half-maximal response. Read a low EC50 as higher potency in that assay. For the compound `CCCCCCCCCCCCCCCCO[C@@H]1O[C@H](C(=O)NCCCC[C@H](NC(=O)C(C)(C)NC(=O)[C@H](CCC(N)=O)NC(=O)[C@@H](NC(=O)[C@H](Cc2c[nH]c3ccccc23)NC(=O)[C@H](CCCNC(=N)N)NC(=O)[C@H](C)NC(=O)[C@H](CCCCNC(=N)N)NC(=O)[C@H](CCC(N)=O)NC(=O)[C@H](Cc2c[nH]cn2)NC(=O)[C@H](CCCC)NC(=O)[C@H](CC(C)C)NC(=O)[C@H](CCC(N)=O)NC(=O)[C@@H](NC(=O)[C@H](CCC(=O)O)NC(=O)C(C)(C)NC(=O)[C@@H](NC(=O)C2(N)CCCC2)C(C)C)[C@@H](C)CC)[C@@H](C)CC)C(=O)NC(C)(C)C(N)=O)[C@@H](O)[C@H](O)[C@H]1O` [EU-287, Ac5c1-VaL2-Aib3-Glu4-Ile5-Gln6-Leu7-Nle8-His9-Gln10-hArg11-Ala12-Arg13-TrP14-Ile15-Gln16-Aib17-Lys(N-epsilon-1′-hexadecylbeta-D-glucuronyL)18-Aib19-NH2] (H-[Ac5c]V[Aib]EIQL[Nle]HQ[hArg]ARWIQ[Aib]K(βGlcA(1-O-hexadecyl))[Aib]-NH2), in data set [2], the Characterization entry was “agonist”, the EC50 is less than 1 nM and the Emax worked out at 128%.
Regarding `CCCCCCCCCCCCCCCCCCO[C@@H]1O[C@H](C(=O)NCCCC[C@H](NC(=O)C(C)(C)NC(=O)[C@H](CCC(N)=O)NC(=O)[C@@H](NC(=O)[C@H](Cc2c[nH]c3ccccc23)NC(=O)[C@H](CCCNC(=N)N)NC(=O)[C@H](C)NC(=O)[C@H](CCCCNC(=N)N)NC(=O)[C@H](CCC(N)=O)NC(=O)[C@H](Cc2c[nH]cn2)NC(=O)[C@H](CCCC)NC(=O)[C@H](CC(C)C)NC(=O)[C@H](CCC(N)=O)NC(=O)[C@@H](NC(=O)[C@H](CCC(=O)O)NC(=O)C(C)(C)NC(=O)[C@@H](NC(=O)C2(N)CCCC2)C(C)C)[C@@H](C)CC)[C@@H](C)CC)C(=O)NC(C)(C)C(N)=O)[C@@H](O)[C@H](O)[C@H]1O` [EU-288, Ac5c1-VaL2-Aib3-Glu4-Ile5-Gln6-Leu7-Nle8-His9-Gln10-hArg11-Ala12-Arg13-Trp14-Ile15-Gln16-Aib17-Lys(N-epsilon-1′-octadecylbeta-D-glucuronyl)18-Aib19-NH2] (H-[Ac5c]V[Aib]EIQL[Nle]HQ[hArg]ARWIQ[Aib]K(βDGlcA(1-OC18H37))[Aib]-NH2), in data set [2], the Characterization entry is “agonist”, the EC50 is less than 1 nM and the Emax was 130%.
With `CCCCCCCCCCCCO[C@@H]1O[C@H](C(=O)NCCCC[C@H](NC(=O)[C@H](Cc2ccccc2)NC(=O)[C@@H]2Cc3ccccc3CN2C(=O)[C@@H](N)Cc2c(C)cc(O)cc2C)C(N)=O)[C@@H](O)[C@H](O)[C@H]1O` [EU-A179, Dmt-Tic-Phe-Lys(C12-glucuronyl)-NH2] (H-[Dmt][Tic]FK(GlcA(β-D,1-O-dodecyl))-NH2), the “Characterization (MOP)” value in data set [3] is on record as “Pure MOP Ag;”. The “Characterization (DOP)” value in data set [4] was “pure DOP antag”.
In the case of `CCCCCCCCO[C@@H]1O[C@H](C(=O)NCCCC[C@H](NC(=O)[C@H](Cc2ccccc2)NC(=O)[C@@H]2Cc3ccccc3CN2C(=O)[C@@H](N)Cc2c(C)cc(O)cc2C)C(N)=O)[C@@H](O)[C@H](O)[C@H]1O` [EU-A180, Dmt-Tic-Phe-Lys(C8-glucuronyl)-NH2] (H-[Dmt][Tic]FK(GlcA(β1-O-octyl))-NH2), in data set [3], the “Characterization (MOP)” value is on record as “Pure MOP Ag;” and the EC50 was found to be 36 nM. In addition, the “Characterization (DOP)” value in data set [4] is reported as “pure DOP antag”.
On to `CO[C@@H]1O[C@H](C(=O)NCCCC[C@H](NC(=O)[C@H](Cc2ccccc2)NC(=O)[C@H](Cc2ccccc2)NC(=O)[C@@H]2Cc3ccccc3CN2C(=O)[C@@H](N)Cc2c(C)cc(O)cc2C)C(N)=O)[C@@H](O)[C@H](O)[C@H]1O` [EU-A189, 2′,6′-dimethyl-L-tyrosyl-L-1,2,3,4-tetrahydroisoquinoline-3-carbonyl-L-phenylalanyl-L-phenylalanyl-Nε-(1′-methyl β-D-glucuronyl)-L-lysyl-amide], for which, in data set [3], the “Characterization (MOP)” value was “Pure MOP Ag;” and the EC50 was determined as 41 nM. In data set [4], the “Characterization (DOP)” value was “pure DOP antag”.
As for `CCCCCCCCCCCCO[C@@H]1O[C@H](C(=O)NCCCC[C@H](NC(=O)[C@H](Cc2ccccc2)NC(=O)[C@H](Cc2ccccc2)NC(=O)[C@@H]2Cc3ccccc3CN2C(=O)[C@@H](N)Cc2c(C)cc(O)cc2C)C(N)=O)[C@@H](O)[C@H](O)[C@H]1O` [EU-A190, Dmt-Tic-Phe-Phe-Lys(C12-glucuronyl)-NH2], in data set [3], the “Characterization (MOP)” value is recorded as “Pure MOP Ag;”. Further, in data set [4], the “Characterization (DOP)” value is “pure DOP antag”.
Consider `CO[C@@H]1O[C@H](C(=O)NCCCC[C@H](NC(=O)[C@H](Cc2ccccc2)NC(=O)[C@@H]2Cc3ccccc3CN2C(=O)[C@@H](N)Cc2c(C)cc(O)cc2C)C(=O)NC(C)(C)C(N)=O)[C@@H](O)[C@H](O)[C@H]1O` [EU-A600, Dmt-Tic-Phe-Lys(C1-glucuronyl)-Aib-NH2] (H-[Dmt][Tic]FK(βGlcA(1-OMe))[Aib]-NH2; N-terminus assumed), for which, in data set [3], the “Characterization (MOP)” value was “Pure MOP Ag;” and it took 110 nM to reach a half-maximal effect (EC50). Further, in data set [4], the “Characterization (DOP)” value is “pure DOP antag”.
Turning to `CO[C@@H]1O[C@H](C(=O)NCCCC[C@@H](NC(=O)[C@H](Cc2ccccc2)NC(=O)[C@@H]2Cc3ccccc3CN2C(=O)[C@@H](N)Cc2c(C)cc(O)cc2C)C(N)=O)[C@@H](O)[C@H](O)[C@H]1O` [EU-A615, Dmt-Tic-Phe-D-Lys(C1-glucuronyl)-Aib-NH2] (H-[Dmt][Tic]F[dK](βGlcA(1-OMe))-NH2), in data set [3], the “Characterization (MOP)” value is recorded as “Pure MOP Ag;”. For the same compound, the “Characterization (DOP)” value in data set [4] is reported as “pure DOP antag”.
For `CO[C@@H]1O[C@H](C(=O)NCCCC[C@H](NC(=O)[C@H](Cc2ccccc2)NC(=O)[C@@H]2Cc3ccccc3CN2C(=O)[C@@H](N)Cc2c(C)cc(O)cc2C)C(=O)NCc2ccccc2)[C@@H](O)[C@H](O)[C@H]1O` [EU-A620, Dmt-Tic-Phe-Lys(C1-glucuronyl)-NHCH2Ph] (H-[Dmt][Tic]FK(βGlcA(1-OMe))-NHBn), in data set [3], the “Characterization (MOP)” value is “Pure MOP Ag;” and it took 480 nM to reach a half-maximal effect (EC50). In addition, the “Characterization (DOP)” value in data set [4] is given as “pure DOP antag”.
On to `CO[C@@H]1O[C@H](C(=O)NCCCC[C@@H](NC(=O)[C@H](Cc2ccccc2)NC(=O)[C@@H]2Cc3ccccc3CN2C(=O)[C@@H](N)Cc2c(C)cc(O)cc2C)C(=O)NCc2ccccc2)[C@@H](O)[C@H](O)[C@H]1O` [EU-A639, Dmt-Tic-Phe-D-Lys(C1-glucuronyl)-NHCH2Ph] (H-[Dmt][Tic]F[dK](βGlcA(1-OMe))-NHBn; N-terminus assumed), for which, in data set [3], the “Characterization (MOP)” value is “Pure MOP Ag;” and a half-maximal response (EC50) required 280 nM. The “Characterization (DOP)” value in data set [4] is “pure DOP antag”.
Take `CCCCCCCCO[C@@H]1O[C@H](CO)[C@@H](O[C@H]2O[C@H](CO)[C@@H](O)[C@H](O)[C@H]2O)[C@H](O)[C@H]1O` [Octyl maltoside]: the CMC in data set [1] is given as 19.5 mM.
On to Sucrose dodecanoate, for which, in data set [1], the CMC is 0.3 mM.

Source of the values: US10005817B2, “Peptide pharmaceuticals” (EUMEDERIS PHARMACEUTICALS, INC., priority 2012, dated 2018).
